Laboratory results taken from paper PMC12951562, “SH2scan: Mapping SH2 Domain-Ligand Binding Selectivity for Inhibitors and Degraders” (Journal of Medicinal Chemistry, 2026).
Several values for one entry are separate records, joined by “and”; a condition that tells them apart may be missing. Equal entries are not always repeated. Where two headings read alike, the source gives them in different places. Non-standard residues stand in square brackets, D forms with d. Residues, ends and D or L forms follow the SMILES beside them. *: point of attachment. pY = N[C@@H](Cc1ccc(OP(=O)(O)O)cc1)C(=O)O; Caffeoyl = O=C(/C=C/c1ccc(O)c(O)c1)*

What was measured:
Assay in all cases: biochemical
Format in all cases: binding
[1] = biological target: T1, CRK (Homo sapiens, UniProt P46108)
T1 construct: the DNA-tagged SH2 domain concentrations used in this study were <0.1 nM; made in house; host or cells: HEK293 (transient transfection; unpurified extract)

[2] = biological target: T2, CSK (Homo sapiens, UniProt P41240); conditions: primary screen, 10 μM
T2 construct: the DNA-tagged SH2 domain concentrations used in this study were <0.1 nM; made in house; host or cells: HEK293 (transient transfection; unpurified extract)
T2 sequence (P41240 82-171 limits assumed): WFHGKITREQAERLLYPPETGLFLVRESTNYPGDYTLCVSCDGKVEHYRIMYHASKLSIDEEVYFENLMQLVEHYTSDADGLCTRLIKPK

[3] = biological target: T3, FGR (Homo sapiens, UniProt P09769); conditions: for remaining activity at 10 µM: read-out: percent of DMSO vehicle control
T3 construct: the DNA-tagged SH2 domain concentrations used in this study were <0.1 nM; made in house; host or cells: HEK293 (transient transfection; unpurified extract)

[4] = biological target: T4, FYN (Homo sapiens, UniProt P06241)
T4 construct: the DNA-tagged SH2 domain concentrations used in this study were <0.1 nM; made in house; host or cells: HEK293 (transient transfection; unpurified extract)

[5] = biological target: T5, GRB7 (Homo sapiens, UniProt Q14451)
T5 construct: the DNA-tagged SH2 domain concentrations used in this study were <0.1 nM; made in house; host or cells: HEK293 (transient transfection; unpurified extract)

[6] = biological target: T6, HCK (Homo sapiens, UniProt P08631); conditions: for remaining activity at 10 µM: read-out: percent of DMSO vehicle control
T6 construct: the DNA-tagged SH2 domain concentrations used in this study were <0.1 nM; made in house; host or cells: HEK293 (transient transfection, unpurified extract)

[7] = biological target: T7, NCK1 (Homo sapiens, UniProt P16333); conditions: for remaining activity at 10 µM: read-out: percent of DMSO vehicle control
T7 construct: the DNA-tagged SH2 domain concentrations used in this study were <0.1 nM; made in house; host or cells: HEK293 (transient transfection, unpurified extract)

[8] = biological target: T8, PIK3R2(SH2dom.N-term.) (Homo sapiens, UniProt O00459); conditions: for remaining activity at 10 µM: read-out: percent of DMSO vehicle control
T8 construct: SH2dom.N-term. denotes SH2 domain closest to N-terminus of protein; made in house; host or cells: HEK293 (transient transfection, unpurified extract)

[9] = biological target: T9, PLCG1(SH2dom.N-term.) (Homo sapiens, UniProt P19174); conditions: for remaining activity at 10 µM: read-out: percent of DMSO vehicle control
T9 construct: SH2dom.N-term. denotes SH2 domain closest to N-terminus of protein; made in house; host or cells: HEK293 (transient transfection, unpurified extract)
T9 sequence (P19174 550-657 limits assumed): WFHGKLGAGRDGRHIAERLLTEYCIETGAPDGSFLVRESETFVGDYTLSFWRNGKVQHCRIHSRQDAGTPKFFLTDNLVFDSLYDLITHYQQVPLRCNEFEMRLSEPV

[10] = biological target: T10, SH2D6 (Homo sapiens, UniProt Q7Z4S9); conditions: for remaining activity at 10 µM: read-out: percent of DMSO vehicle control
T10 construct: made in house; host or cells: HEK293 (transient transfection), unpurified extract

[11] = biological target: T11, SHIP1 (Homo sapiens, UniProt Q92835); conditions: for percent of DMSO vehicle control: primary screen, 10 μM
T11 construct: made in house; host or cells: HEK293 (transient transfection), unpurified extract
T11 sequence (Q92835 1-1189): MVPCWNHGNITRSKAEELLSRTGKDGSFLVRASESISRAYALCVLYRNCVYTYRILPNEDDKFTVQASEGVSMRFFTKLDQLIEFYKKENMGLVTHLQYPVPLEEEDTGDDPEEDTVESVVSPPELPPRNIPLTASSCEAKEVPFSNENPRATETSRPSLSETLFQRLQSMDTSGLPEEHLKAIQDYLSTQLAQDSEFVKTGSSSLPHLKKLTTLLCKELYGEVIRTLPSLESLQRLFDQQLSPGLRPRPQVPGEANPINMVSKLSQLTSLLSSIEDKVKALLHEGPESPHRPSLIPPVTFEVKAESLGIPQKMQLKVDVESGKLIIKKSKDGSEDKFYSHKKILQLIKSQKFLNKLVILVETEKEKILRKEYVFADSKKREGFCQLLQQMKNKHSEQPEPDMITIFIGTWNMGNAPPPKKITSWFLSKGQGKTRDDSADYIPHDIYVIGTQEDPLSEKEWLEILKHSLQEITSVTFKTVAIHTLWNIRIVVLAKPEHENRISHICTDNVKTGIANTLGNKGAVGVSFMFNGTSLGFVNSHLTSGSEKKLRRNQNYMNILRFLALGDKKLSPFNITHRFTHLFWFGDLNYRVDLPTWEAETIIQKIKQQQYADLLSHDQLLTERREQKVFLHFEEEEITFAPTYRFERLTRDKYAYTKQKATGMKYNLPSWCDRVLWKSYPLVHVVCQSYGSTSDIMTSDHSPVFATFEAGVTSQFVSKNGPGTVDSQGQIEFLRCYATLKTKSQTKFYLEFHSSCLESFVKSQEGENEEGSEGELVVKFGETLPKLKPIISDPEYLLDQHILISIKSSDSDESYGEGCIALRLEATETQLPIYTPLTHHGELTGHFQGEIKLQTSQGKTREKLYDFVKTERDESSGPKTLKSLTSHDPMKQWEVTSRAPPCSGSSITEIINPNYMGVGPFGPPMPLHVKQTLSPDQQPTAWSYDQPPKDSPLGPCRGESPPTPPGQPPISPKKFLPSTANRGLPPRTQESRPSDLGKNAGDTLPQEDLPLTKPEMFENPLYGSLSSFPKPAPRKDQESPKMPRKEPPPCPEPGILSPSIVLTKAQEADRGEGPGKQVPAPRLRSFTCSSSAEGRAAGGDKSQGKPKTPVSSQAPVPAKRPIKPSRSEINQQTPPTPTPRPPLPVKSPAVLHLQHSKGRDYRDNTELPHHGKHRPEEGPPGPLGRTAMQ

[12] = biological target: T12, SLAP2 (Homo sapiens, UniProt Q9H6Q3); conditions: for remaining activity at 10 µM: read-out: percent of DMSO vehicle control
T12 construct: made in house; host or cells: HEK293 (transient transfection), unpurified extract
T12 sequence (Q9H6Q3 1-261): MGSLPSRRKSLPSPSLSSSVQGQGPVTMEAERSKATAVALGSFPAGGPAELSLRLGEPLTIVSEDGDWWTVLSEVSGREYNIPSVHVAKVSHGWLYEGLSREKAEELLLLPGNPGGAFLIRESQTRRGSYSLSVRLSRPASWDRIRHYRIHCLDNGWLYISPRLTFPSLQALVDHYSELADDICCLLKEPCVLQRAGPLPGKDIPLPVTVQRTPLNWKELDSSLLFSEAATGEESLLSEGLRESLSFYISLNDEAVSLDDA

[13] = biological target: T13, SRC (Homo sapiens, UniProt P12931); conditions: for remaining activity at 10 µM: read-out: percent of DMSO vehicle control
T13 construct: made in house; host or cells: HEK293 (transient transfection), unpurified extract

[14] = biological target: T14, STAT2 (Homo sapiens, UniProt P52630)
T14 construct: made in house; host or cells: HEK293 (transient transfection), unpurified extract

[15] = biological target: T15, TNS1 (Homo sapiens, UniProt Q9HBL0)
T15 construct: made in house; host or cells: HEK293 (transient transfection), unpurified extract

[16] = read-out: percent of DMSO vehicle control
[17] = primary screen, 10 μM, read-out: percent of DMSO vehicle control

T15 sequence (Q9HBL0 whole entry): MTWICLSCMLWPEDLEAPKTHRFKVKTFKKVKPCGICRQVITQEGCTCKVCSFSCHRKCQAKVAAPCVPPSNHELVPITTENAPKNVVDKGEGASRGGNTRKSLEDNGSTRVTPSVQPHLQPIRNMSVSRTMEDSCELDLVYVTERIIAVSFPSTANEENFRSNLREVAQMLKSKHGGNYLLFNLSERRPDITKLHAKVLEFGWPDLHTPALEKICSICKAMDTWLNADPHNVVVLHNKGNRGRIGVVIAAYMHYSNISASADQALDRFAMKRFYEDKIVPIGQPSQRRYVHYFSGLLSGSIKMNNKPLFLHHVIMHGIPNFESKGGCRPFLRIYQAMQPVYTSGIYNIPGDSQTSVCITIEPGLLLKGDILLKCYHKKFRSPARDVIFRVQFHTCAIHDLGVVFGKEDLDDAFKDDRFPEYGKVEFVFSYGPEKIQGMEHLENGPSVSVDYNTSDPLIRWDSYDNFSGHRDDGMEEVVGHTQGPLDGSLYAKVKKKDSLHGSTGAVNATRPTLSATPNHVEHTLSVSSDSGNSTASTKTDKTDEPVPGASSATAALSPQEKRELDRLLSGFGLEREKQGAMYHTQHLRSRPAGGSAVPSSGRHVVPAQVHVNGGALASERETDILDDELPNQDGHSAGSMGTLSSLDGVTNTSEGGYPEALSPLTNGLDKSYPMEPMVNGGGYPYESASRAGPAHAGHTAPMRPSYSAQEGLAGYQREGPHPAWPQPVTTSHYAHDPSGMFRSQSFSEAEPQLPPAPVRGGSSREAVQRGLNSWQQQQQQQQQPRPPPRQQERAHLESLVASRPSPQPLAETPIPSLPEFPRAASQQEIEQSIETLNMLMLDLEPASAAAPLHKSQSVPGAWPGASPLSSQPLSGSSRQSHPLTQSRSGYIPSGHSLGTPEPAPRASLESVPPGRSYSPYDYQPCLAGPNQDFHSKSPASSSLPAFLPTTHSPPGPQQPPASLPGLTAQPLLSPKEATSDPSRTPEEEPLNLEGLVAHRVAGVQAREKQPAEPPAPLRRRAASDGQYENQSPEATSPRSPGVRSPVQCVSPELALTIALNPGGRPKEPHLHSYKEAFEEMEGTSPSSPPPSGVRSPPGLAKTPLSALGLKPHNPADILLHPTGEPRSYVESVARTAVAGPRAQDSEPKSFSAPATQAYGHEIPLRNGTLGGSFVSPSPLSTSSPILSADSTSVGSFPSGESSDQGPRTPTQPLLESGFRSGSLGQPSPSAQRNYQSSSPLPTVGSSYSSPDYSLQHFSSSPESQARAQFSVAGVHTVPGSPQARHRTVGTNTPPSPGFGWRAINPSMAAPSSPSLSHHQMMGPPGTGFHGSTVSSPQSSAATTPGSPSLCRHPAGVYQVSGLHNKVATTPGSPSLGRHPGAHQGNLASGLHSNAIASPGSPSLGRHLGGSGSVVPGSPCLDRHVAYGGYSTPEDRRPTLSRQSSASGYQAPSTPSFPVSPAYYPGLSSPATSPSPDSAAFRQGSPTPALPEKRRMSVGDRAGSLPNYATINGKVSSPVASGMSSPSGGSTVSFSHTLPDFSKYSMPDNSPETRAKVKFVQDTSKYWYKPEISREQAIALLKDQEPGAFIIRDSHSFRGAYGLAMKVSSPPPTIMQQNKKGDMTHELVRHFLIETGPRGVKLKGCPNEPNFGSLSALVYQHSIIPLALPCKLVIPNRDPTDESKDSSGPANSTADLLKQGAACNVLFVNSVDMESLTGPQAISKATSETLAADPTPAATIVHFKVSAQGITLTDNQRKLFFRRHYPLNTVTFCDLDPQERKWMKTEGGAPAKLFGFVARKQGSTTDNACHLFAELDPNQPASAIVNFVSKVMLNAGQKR
T14 sequence (P52630 whole entry): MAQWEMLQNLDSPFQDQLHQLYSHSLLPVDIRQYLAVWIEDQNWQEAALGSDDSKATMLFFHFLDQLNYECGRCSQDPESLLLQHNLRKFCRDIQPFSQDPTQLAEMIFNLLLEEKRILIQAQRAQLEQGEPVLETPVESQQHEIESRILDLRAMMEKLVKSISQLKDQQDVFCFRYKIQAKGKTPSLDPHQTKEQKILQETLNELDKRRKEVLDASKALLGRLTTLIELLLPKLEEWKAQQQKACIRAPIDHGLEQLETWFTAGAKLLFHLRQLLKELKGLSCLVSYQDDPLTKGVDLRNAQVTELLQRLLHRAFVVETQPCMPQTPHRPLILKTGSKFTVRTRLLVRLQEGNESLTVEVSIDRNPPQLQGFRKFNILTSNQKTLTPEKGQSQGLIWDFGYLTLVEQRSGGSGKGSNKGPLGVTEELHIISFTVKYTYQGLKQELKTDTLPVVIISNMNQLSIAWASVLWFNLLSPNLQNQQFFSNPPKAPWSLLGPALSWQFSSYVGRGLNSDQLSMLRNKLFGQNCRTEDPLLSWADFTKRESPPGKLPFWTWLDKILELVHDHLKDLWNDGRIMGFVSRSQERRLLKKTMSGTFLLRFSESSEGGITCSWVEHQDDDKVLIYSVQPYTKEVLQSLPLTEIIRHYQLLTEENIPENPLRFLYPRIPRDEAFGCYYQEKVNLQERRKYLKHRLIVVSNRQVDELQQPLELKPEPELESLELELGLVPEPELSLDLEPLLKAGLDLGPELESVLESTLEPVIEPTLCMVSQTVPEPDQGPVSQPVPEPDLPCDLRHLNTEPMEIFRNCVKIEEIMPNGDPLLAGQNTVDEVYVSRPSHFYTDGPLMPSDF
T13 sequence (P12931 whole entry): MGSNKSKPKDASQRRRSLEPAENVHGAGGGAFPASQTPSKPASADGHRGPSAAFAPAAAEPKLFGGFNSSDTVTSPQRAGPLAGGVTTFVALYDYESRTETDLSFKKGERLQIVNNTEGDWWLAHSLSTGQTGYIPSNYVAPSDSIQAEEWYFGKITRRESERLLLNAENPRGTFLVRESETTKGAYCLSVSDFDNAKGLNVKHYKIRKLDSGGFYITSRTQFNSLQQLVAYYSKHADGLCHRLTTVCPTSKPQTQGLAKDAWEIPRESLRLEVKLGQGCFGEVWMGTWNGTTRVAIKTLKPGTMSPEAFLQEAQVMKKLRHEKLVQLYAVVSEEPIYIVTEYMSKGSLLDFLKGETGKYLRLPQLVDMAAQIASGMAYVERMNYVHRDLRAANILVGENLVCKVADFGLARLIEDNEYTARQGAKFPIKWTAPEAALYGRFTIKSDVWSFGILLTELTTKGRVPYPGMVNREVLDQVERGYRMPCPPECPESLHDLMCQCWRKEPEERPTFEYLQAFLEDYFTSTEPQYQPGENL
T6 sequence (P08631 144-241 limits assumed): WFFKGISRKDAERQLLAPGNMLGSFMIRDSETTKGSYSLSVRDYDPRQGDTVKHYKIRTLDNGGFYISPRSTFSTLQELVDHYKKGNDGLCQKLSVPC
T4 sequence (P06241 149-246 limits assumed): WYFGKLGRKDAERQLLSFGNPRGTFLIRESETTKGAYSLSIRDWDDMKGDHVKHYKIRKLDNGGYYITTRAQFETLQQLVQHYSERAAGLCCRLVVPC
T1 sequence (P46108 13-118 limits assumed): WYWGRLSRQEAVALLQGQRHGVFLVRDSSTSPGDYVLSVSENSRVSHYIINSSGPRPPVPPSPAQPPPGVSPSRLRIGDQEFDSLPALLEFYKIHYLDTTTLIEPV
T8 sequence (O00459 330-425 limits assumed): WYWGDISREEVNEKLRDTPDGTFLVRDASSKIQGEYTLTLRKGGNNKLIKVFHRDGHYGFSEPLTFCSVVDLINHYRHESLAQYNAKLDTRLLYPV
T3 sequence (P09769 144-241 limits assumed): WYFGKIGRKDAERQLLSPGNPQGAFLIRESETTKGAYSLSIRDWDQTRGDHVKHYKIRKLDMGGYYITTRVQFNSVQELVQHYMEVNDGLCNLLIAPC
T10 sequence (Q7Z4S9 whole entry): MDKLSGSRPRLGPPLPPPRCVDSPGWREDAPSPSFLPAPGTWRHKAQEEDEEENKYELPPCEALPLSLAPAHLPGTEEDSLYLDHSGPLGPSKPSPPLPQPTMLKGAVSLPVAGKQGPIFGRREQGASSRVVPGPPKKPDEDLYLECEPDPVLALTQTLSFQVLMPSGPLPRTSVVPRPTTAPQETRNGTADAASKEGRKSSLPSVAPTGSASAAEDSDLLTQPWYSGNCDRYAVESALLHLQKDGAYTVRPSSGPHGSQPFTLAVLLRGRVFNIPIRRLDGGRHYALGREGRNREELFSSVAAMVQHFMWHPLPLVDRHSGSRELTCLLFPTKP
T5 sequence (Q14451 431-527 limits assumed): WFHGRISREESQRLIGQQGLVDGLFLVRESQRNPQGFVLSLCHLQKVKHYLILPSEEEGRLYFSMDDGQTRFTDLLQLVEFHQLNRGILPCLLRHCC

Row | SMILES | percent of DMSO vehicle control at 10 µM [1, 16] | percent of DMSO vehicle control [2] | remaining activity at 10 µM [3] | percent of DMSO vehicle control at 10 µM [4, 16] | percent of DMSO vehicle control at 10 µM [5, 16] | remaining activity at 10 µM [6] | remaining activity at 10 µM [7] | remaining activity at 10 µM [8] | remaining activity at 10 µM [9] | remaining activity at 10 µM [10] | percent of DMSO vehicle control [11] | remaining activity at 10 µM [12] | remaining activity at 10 µM [13] | Kd [14] | percent of DMSO vehicle control at 10 µM [14, 16] | percent of DMSO vehicle control at 10 µM [15, 16] | further results
1 | CC[C@H](C)[C@H](NC(=O)[C@H](CCC(=O)O)NC(=O)[C@H](CCC(=O)O)NC(=O)[C@H](Cc1ccc(OP(=O)(O)O)cc1)NC(=O)/C=C/c1ccc(O)c(O)c1)C(=O)N[C@@H](CCC(=O)O)C(=O)O [Caffeic acid-pYEEIE] (Caffeoyl-[pY]EEIE-OH) | 3.1 ± 2.8% | 103.0±4.8% | 0% | 0% | 0.2 ± 0.1% | 0% | 0.8 ± 0.1% | 0% | 0.3% | 36.4 ± 4.5% | 9.0±2.9% | 5.3 ± 3.8% | 0% | 3.6 ± 0.18 nM | 0% | 25.5 ± 1.1% | Kd [1]: 2300 ± 670 nM; Kd [3]: 2.7 ± 5.3 nM; Kd [4]: 0.53 nM; Kd [5]: 6100 ± 320 nM; Kd [6]: 6 ± 0.97 nM; Kd [7]: 97 ± 71 nM; Kd [8]: 180 ± 52 nM; Kd [9]: 180 ± 200 nM; Kd [10]: 14500 ± 2890 nM; Kd [11]: 5800 ± 1600 nM; Kd ([12]; KD, dose-response): 310 nM and 314 nM; Kd [13]: 4.8 ± 1.3 nM; Kd [15]: 3800 ± 610 nM
2 | O=C(CCl)Nc1cccc(CNC(=O)[C@H](Cc2ccc(OP(=O)(O)O)cc2)NC(=O)Cc2ccc(F)cc2)c1 [MN551] |  | 105.0% |  |  |  |  |  |  |  |  | 19.1% |  |  |  |  |  | remaining activity at 10 µM [1, 17]: 72.1 ± 0.5%; remaining activity at 10 µM ([3]; primary screen, 10 μM): 49.8%; remaining activity at 10 µM [4, 17]: 83.2 ± 0.4%; remaining activity at 10 µM [5, 17]: 71.3 ± 3.5%; remaining activity at 10 µM ([6]; primary screen, 10 μM): 92.7%; remaining activity at 10 µM ([7]; primary screen, 10 μM): 67.4 ± 5.3%; remaining activity at 10 µM ([8]; primary screen, 10 μM): 101%; remaining activity at 10 µM ([9]; primary screen, 10 μM): 62.8 ± 3.8%; remaining activity at 10 µM ([10]; primary screen, 10 μM): 93.6 ± 4.8%; KD ([11]; dose-response): No Hit; remaining activity at 10 µM ([12]; primary screen, 10 μM): 81.6 ± 2.1%; remaining activity at 10 µM ([13]; primary screen, 10 μM): 70.2 ± 6.8%; remaining activity at 10 µM [14, 17]: 217%; remaining activity at 10 µM [15, 17]: 134%
3 | NC(=O)CC[C@H](NC(=O)[C@@H]1CC[C@@H]2CCN(C(=O)CCCCCC#Cc3cccc4c3CN(C3CCC(=O)NC3=O)C4=O)C[C@H](NC(=O)c3cc4cc(C(F)(F)P(=O)(O)O)ccc4[nH]3)C(=O)N21)C(=O)NC(c1ccccc1)c1ccccc1 (some centres unmarked) [SD-36] | 77 ± 13.9% | 97.3±14.8% | 82 ± 28% | 106% | 66.9 ± 4.6% | 56.4 ± 3.2% | 106% | 132% | 91.3 ± 4.5% | 99.6 ± 3.4% | 44.1±5.9% | 95.7 ± 9.9% | 81.4 ± 1.5% |  | 0.1 ± 1.3% | 112.9 ± 1% | Kd ([14]; dose-response): 450 nM and 454 nM
4 | CC(=O)N1CC[C@H]2CC[C@@H](C(=O)N[C@@H](CCC(N)=O)C(=O)NC(c3ccccc3)c3ccccc3)N2C(=O)[C@@H](NC(=O)c2cc3cc(C(F)(F)P(=O)(O)O)ccc3[nH]2)C1 [SI-109] | 119% | 121.2% | 128% | 97.3% | 135% | 91.9% | 124% | 130% | 130% | 96.9 ± 1.7% | 101.8% | 121% | 117% | 1300 ± 1300 nM | 100% | 152% | 
